Source: US9547009B2, “Benzocyclooctyne compounds and uses thereof” (Academia Sinica, priority 2012, dated 2017)
Values belong to the molecule of their own block, whether it stands above or below them.

What was measured:
[1] = SPAAC kinetics with benzyl azide monitored by 1H-NMR; conditions: CD3CN, 25° C.
Protocol: The cycloaddition of compound 1 with benzyl azide was a second-order reaction. […] The second-order rate constant (k) was determined to be 0.015 M^−1s^−1 at 25° C. […] (Agard, et al., J. Am. Chem. Soc. 2004, 126, 15046; Ning, et al., Angew. Chem. Int. Ed. 2008, 47, 2253).
(§1) Experiment I: Compound 1 and benzyl azide were predissolved in CD3CN, and then mixed at equimolar concentration of 20 mM. The reaction was monitored by ^1H-NMR analysis over a period of 1 h. The concentration of each component was determined, based on the concentration of initial compound 1, by integration at multiple chemical shifts in the ^1H-NMR spectrum. By plotting 1/[1](M^−1) vs. time (sec), a second order rate constant in unit of M^−1s^−1 was determined using linear regression analysis. This procedure was repeated 3 times with a concentrated of 20 mM to afford a rate constant of 0.012 M^−1s^−1 at 25° C. (FIG. 4B).

[2] = Time course of ligation with ManNAz by fluorescence spectroscopy; conditions: emission 435 nm, excitation 330 nm; 10% DMSO in PBS, 37° C.
Protocol: To probe the SPAAC reaction under the conditions that would be more typical for biomolecule labeling, the fluorescence response and time course for the reaction of Compound 1 with N-azidoacetylmannosamine (ManNAz) were investigated.
A solution of Compound 1 ([…]) and N-azidoacetylmannosamine (15 μmol) in a mixture of 10% DMSO in PBS buffer (2.5 mL) was incubated at 37° C. The fluorescence emission intensity at 435 nm upon excitation at 330 nm was monitored in 5 min intervals. For each point the fluorescence intensity was measured over a period of 5 sec and averaged over a total of 3 points. In a control experiment the same conditions were used except that N-acetylmannosamine (15 μmol) was added to the solution.

[3] = tested on: CL1-5 cells; test: Fluorescence labeling of azido-glycoconjugates in live cells (time-lapse and confocal microscopy); assay type: cell-based
Protocol: To observe the fluorescence labeled azido-glycoconjugates in cells, CL1-5 cells (a lung cancer cell line) were seeded on chamber slide (2.5×10^4 cells/0.5 mL per wells) and incubated in culture medium (RPMI-1640 supplemented with 10% FBS, 100 U/mL penicillin, 100 μg/mL streptomycin, 1 mM L-glutamine and 1 mM sodium pyruvate) with either 200 μM control sugar (peracetylated N-acetylmannosamine, Ac4ManNAc) or azido-sugar (peracetylated azido-N-acetylmannosamine, Ac4ManNAz) for 3 days.
For Time-lapse imaging of live cells, experiments were carried out using a confocal microscope (TCS-SP5-MP-SMD, Leica) equipped with an incubator to keep the cells in culture conditions. Prewashed cells were incubated with 100 μM compound 1 in PBS buffer with 10% DMSO and images of cell were acquired at 450 nm emission and in 5-min intervals.
For comparing the localization of azido-glycans, probe-labeled cells were washed with PBS, fixed with 3% paraformaldehyde in PBS at room temperature for 20 min, permeablized with 0.2% Triton X-100 in PBS at room temperature for 20 min, and blocked with 3% bovine serum albumin in PBS at room temperature for 30 min. Cells were stained with fluorescein conjugated WGA lectin for Golgi, and propidium iodide (PI) for nucleus (FIG. 12).
Performance of Compound 1 in live cell imaging was investigated. Highly invasive lung cancer cells, CL1-5, were cultured in the presence of peracetylated azido-N-acetylmannosamine (Ac4ManNAz, 200 μM) for 3 days to metabolically produce the azido-sialic acid expressed cells. As a negative control, CL1-5 cells were grown in the presence of peracetylated N-acetylmannosamine (Ac4ManNAc, 200 μM). A time course experiment was conducted by treating 100 μM of Compound 1 (once) and conducted by exposing the cells at 5-min intervals under no-wash and no-fixation conditions (FIG. 8 and FIG. 12). […] Furthermore, the localization of azido-containing glycoconjugates in living cells was visualized by confocal microscopy. The cells labeled by Compound 1 were subsequently stained with fluorescein-conjugated WGA lectin (a Golgi marker) and propidium iodide (PI, a nucleus marker).

[4] = Absorption/fluorescence spectroscopy and quantum yield under simulated physiological conditions (10% DMSO in PBS); assay type: physicochemical; conditions: excitation at 330 nm, PBS buffer containing 10% DMSO, pH 7.4, 37° C.; for quantum yield Φf: quinine sulfate standard
Protocol: All spectroscopic measurements of Compound 1 and the triazole products 1-A and 1-B were performed in a mixture of 10% DMSO in PBS buffer (FIG. 11). UV-vis spectra and fluorescence spectra were recorded on a Molecular Devices Spectramax M5 spectrometer. For each experiment, the absorbance spectra were measured within an absorbance range of 0.07 to 0.7 (l=[…]). Quantum yields were determined from the slope of the integrated fluorescence emission between 360 and 550 nm (excitation at 330 nm) versus absorbance using quinine sulfate (Φf=0.54±0.0 3)[^S3] as fluorescence standard. The quantum yield was calculated as an average of 4 points according to the following equation: Φsample=Φstandard(Astandard/Asample)(Fsample/Fstandard)(nsample/nstandard)^2 where “Φ” is the quantum yield, “A” is the absorbance at the excitation frequency, “F” is the area under the emission curve, and “n” is the refractive index of the solvent.
Formation of triazoles 1-A and 1-B were accompanied by a significant increase in fluorescence intensity with a large Stokes shift into a standard range for coumarin emission (FIG. 8a).

[5] = SPAAC kinetics with N-azidoacetylmannosamine monitored by 1H-NMR; conditions: CD3OD/D2O (5:1, v/v), equimolar 20 mM, 25° C.
Protocol: as §1, with “II:” for “I:”, “N-azidoacetylmannosamine” for “benzyl azide”, “CD3OD/D2O (5:1, v/v),” for “CD3CN,”, “0.010” for “0.012”, “11).” for “4B).”

[6] = Photophysical properties of Compound 1 and its benzyl azide triazole regioisomers 3a/3b; assay type: physicochemical; conditions: for fluorescence emission λmax: upon irradiation; for extinction coefficient relative to Compound 1: at λmax 330 nm
Description: In one embodiment, Compound 1 reacted with benzyl azide in ethanol/water (1:1) in the absence of copper(I) catalyst to afford the cycloaddition product as a mixture of two triazole reigoisomers 3a and 3b. These two trizaole isomers were separated, and their photophysical properties were investigated, respectively. […] The quantum yields of triazole compounds 3a (Φf=0.23) and 3b (Φf=0.22) were 20-fold higher than Compound 1 (Φf=0.011).

[7] = Photophysical properties of alkynyl coumarin-indolium compound C and its CuAAC triazole product 18; assay type: physicochemical; conditions: 18: in aqueous solution; for extinction coefficient ε: at λmax 500 nm

- fluorescence emission band [4]: 405 nm
- quantum yield Φf [4]: 0.011
- absorption band λmax [6]: 330 nm
- quantum yield Φf [6]: 0.011
- fluorescence emission λmax [6]: 400 nm
Structure (SMILES): O=c1ccc2cc3c(cc2o1)C#CCCCC3 [Compound 1, 10,11-Dehydro-6,7,8,9-tetrahydro-cycloocta[g]chromen-2-one]
- second order rate constant ([1]; benzyl azide, equimolar 20 mM, repeated 3 times): 0.012 M⁻¹ s⁻¹
- second-order rate constant (k) ([1]; cycloaddition with benzyl azide, 19 mM): 0.015 M⁻¹ s⁻¹
- time until fluorescence intensity reached a plateau [2]: less than 1 h
- fluorescence of Ac4ManNAz treated cells ([3]; 100 μM probe, 5-min intervals, no-wash, no-fixation): time-dependent increase of fluorescence intensity
- fluorescence of control cells (background labeling) ([3]; 100 μM probe, CL1-5 cells grown with 200 μM Ac4ManNAc): almost no fluorescence staining
- time until cell labeling complete ([3]; 100 μM probe, CL1-5 cells pre-treated with 200 μM Ac4ManNAz for 3 days, no-wash, no-fixation): 1.5 h
- localization of probe-labeled sialylated glycans ([3]; confocal microscopy, co-staining with fluorescein-WGA lectin (Golgi) and propidium iodide (nucleus)): partially co-localized with Golgi apparatus staining, but not with nucleus staining
- second order rate constant [5]: 0.010 M⁻¹ s⁻¹

- fluorescence emission band [4]: 435 nm
- quantum yield Φf [4]: 0.23
Structure (SMILES): O=c1ccc2cc3c(cc2o1)-c1nnn(Cc2ccccc2)c1CCCC3 [Compound 1-A, 10-Benzyl-6,7,8,9-tetrahydro-cyclooctatriazolo[5,4-g]chromen-2 (2H)-one]

- fluorescence emission band [4]: 435 nm
- quantum yield Φf [4]: 0.21
Structure (SMILES): O=C(Cn1nnc2c1CCCCc1cc3ccc(=O)oc3cc1-2)NC1C(O)OC(CO)[C@@H](O)C1O (stereo partly drawn) [Compound 1-B, N-[2-(11-Oxo-4,6,7,11-tetrahydrochromeno[7′,6′:3,4]cycloocta[1,2-d][1,2,3]triazol-3 (5H)-yl)]acetamido-2-deoxy-α,β-D-mannopyranose]

- absorption band λmax [6]: 330 nm
- quantum yield relative to Compound 1 [6]: 20 fold
- quantum yield Φf [6]: 0.23
- extinction coefficient relative to Compound 1 [6]: ~2.5 fold
- fluorescence emission λmax [6]: 400 nm
Structure (SMILES): O=c1ccc2cc3c(cc2o1)-c1nnn(Cc2ccccc2)c1CCCC3 [Compound 3a]

- absorption band λmax [6]: 330 nm
- quantum yield relative to Compound 1 [6]: 20 fold
- quantum yield Φf [6]: 0.22
- extinction coefficient relative to Compound 1 [6]: ~2.5 fold
- fluorescence emission λmax [6]: 400 nm
Structure (SMILES): O=c1ccc2cc3c(cc2o1)-c1c(nnn1Cc1ccccc1)CCCC3 [Compound 3b]

- absorption λmax [7]: 500 nm
- fluorescence quantum yield Φf [7]: 0.56
- fluorescence λmax [7]: 520 nm
- extinction coefficient ε [7]: 32,000 M^−1 cm^−1
Structure (SMILES): CC1(C)C(/C=C/c2cc3ccc(-c4cn(Cc5ccccc5)nn4)cc3oc2=O)=[N+](CCCCS(=O)(=O)[O-])c2ccccc21 [Compound 18]

- absorption λmax [7]: 500 nm
- fluorescence quantum yield Φf [7]: 0.017
- fluorescence λmax [7]: 515 nm
- extinction coefficient ε [7]: 8,600 M^−1 cm^−1
Structure (SMILES): C#Cc1ccc2cc(/C=C/C3=[N+](CCCCS(=O)(=O)[O-])c4ccccc4C3(C)C)c(=O)oc2c1 [Compound C, (E)-7-ethynyl-3-[N-(4-sulfonatobutyl)-3,3-dimethyl-3H-indolium-2-yl]ethenyl-2H-chromen-2-one]
